The values below come from patent US9884125B2, “Glucose-responsive insulin conjugates” (Merck Sharp & Dohme Corp., priority 2013, dated 2018).

The target in this assay is T1, Human macrophage mannose receptor 1 (MRC1) (Homo sapiens, UniProt P22897).
T1 sequence (P22897 19-1456): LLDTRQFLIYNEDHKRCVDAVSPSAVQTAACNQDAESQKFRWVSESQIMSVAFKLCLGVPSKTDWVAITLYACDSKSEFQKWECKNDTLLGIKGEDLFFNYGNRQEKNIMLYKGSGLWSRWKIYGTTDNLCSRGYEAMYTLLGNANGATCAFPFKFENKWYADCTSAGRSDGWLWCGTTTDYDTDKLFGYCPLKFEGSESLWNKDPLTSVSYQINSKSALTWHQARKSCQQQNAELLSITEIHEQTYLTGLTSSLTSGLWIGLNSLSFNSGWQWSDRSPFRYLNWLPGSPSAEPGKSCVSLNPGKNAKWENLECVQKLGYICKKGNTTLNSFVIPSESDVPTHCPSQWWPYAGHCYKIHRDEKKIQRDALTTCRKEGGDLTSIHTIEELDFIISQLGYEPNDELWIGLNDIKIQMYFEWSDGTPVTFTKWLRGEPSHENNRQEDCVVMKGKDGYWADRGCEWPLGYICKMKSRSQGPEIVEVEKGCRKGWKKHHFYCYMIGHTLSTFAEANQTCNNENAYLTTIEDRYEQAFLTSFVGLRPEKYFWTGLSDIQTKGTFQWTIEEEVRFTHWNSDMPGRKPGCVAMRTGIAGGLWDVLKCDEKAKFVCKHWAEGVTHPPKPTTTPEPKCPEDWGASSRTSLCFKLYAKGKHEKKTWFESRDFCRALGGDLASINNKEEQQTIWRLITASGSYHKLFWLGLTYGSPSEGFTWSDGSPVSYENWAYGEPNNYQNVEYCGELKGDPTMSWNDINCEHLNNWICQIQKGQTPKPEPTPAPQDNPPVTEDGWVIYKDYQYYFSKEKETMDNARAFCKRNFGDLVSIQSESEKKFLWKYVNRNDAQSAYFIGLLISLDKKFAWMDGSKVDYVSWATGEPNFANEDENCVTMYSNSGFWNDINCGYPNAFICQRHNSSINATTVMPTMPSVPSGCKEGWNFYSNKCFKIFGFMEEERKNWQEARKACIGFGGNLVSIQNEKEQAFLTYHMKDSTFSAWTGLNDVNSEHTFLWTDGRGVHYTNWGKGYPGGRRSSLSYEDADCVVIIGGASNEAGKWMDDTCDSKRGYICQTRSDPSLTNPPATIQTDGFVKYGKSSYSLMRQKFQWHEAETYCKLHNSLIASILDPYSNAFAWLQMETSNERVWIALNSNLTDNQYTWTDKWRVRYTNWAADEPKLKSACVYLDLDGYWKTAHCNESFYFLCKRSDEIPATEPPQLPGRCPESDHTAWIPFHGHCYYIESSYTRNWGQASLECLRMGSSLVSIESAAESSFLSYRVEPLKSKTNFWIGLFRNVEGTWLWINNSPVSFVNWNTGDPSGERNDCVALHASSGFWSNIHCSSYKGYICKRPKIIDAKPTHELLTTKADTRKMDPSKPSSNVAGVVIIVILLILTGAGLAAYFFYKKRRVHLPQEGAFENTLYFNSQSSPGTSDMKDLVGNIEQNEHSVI
In words: MRC1 competition binding assay (Eu-mannosylated-BSA), Method F: 96-well, manual liquid dispense. Conditions: read-out: MRC1 Binding IP (inflection point, corresponds to IC50). On the procedure:
The competition binding assay for MRC1 utilized a ligand, mannosylated-BSA labeled with the DELFIA Eu-N1-ITC reagent, as reported in the literature. […] The antibody was incubated in the plate for 1 hr at room temperature with shaking. The plate was washed with wash buffer 3-5 times followed by addition of MRC1 (2 ng/μl final concentration) in 25 μl PBS containing 1% stabilizer BSA. The plate was incubated at room temperature with gentle shaking for 1 hr. The plate was washed three times with wash buffer. […]
Their in vitro biological activities towards insulin receptor (IR) were measured by either ligand competition assays or functional phosphorylation assays, as described above, labeled as following: Method A: IR phosphorylation assay based on 96-well with manual liquid dispense; Method B: IR phosphorylation assay based on 96-well with automated liquid dispense; Method C: IR phosphorylation assay based on 384-well with automated liquid dispense; Method D: IR binding assay method D; Method E: IR binding assay method E; Method F: MRC1 assay was performed in a 96-well plate with a manual liquid dispense; Method G: MRC1 assay was performed in a 96-well plate with an automated liquid dispense; Method H: MRC1 assay was performed in a 384-well plate with an automated dispense.

As to `CC[C@H](C)[C@H](NC(=O)CNC(=O)CCCCC(=O)N(CC(=O)NCCO[C@@H]1O[C@@H](C)[C@@H](O)[C@@H](O)[C@@H]1O)CC(=O)NCCO[C@@H]1O[C@@H](C)[C@@H](O)[C@@H](O)[C@@H]1O)C(=O)N[C@H](C(=O)N[C@@H](CCC(=O)O)C(=O)N[C@@H](CCC(N)=O)C(=O)N[C@H]1CSSC[C@@H]2NC(=O)[C@H]([C@@H](C)CC)NC(=O)[C@H](CO)NC(=O)[C@H]([C@@H](C)O)NC(=O)[C@H](CSSC[C@H](NC(=O)[C@H](CC(C)C)NC(=O)[C@H](Cc3c[nH]cn3)NC(=O)[C@H](CCC(N)=O)NC(=O)[C@H](CC(N)=O)NC(=O)[C@@H](NC(=O)[C@@H](N)Cc3ccccc3)C(C)C)C(=O)NCC(=O)N[C@@H](CO)C(=O)N[C@@H](Cc3c[nH]cn3)C(=O)N[C@@H](CC(C)C)C(=O)N[C@@H](C(C)C)C(=O)N[C@@H](CCC(=O)O)C(=O)N[C@@H](C)C(=O)N[C@@H](CC(C)C)C(=O)N[C@@H](Cc3ccc(O)cc3)C(=O)N[C@@H](CC(C)C)C(=O)N[C@@H](C(C)C)C(=O)N[C@H](C(=O)NCC(=O)N[C@@H](CCC(=O)O)C(=O)N[C@@H](CCCNC(=N)N)C(=O)NCC(=O)N[C@@H](Cc3ccccc3)C(=O)N[C@@H](Cc3ccccc3)C(=O)N[C@@H](Cc3ccc(O)cc3)C(=O)N[C@H](C(=O)N3CCC[C@H]3C(=O)N[C@@H](CCCCN)C(=O)N[C@H](C(=O)O)[C@@H](C)O)[C@@H](C)O)CSSC[C@@H](C(=O)N[C@@H](CC(N)=O)C(=O)O)NC(=O)[C@H](Cc3ccc(O)cc3)NC(=O)[C@H](CC(N)=O)NC(=O)[C@H](CCC(=O)O)NC(=O)[C@H](CC(C)C)NC(=O)[C@H](CCC(N)=O)NC(=O)[C@H](Cc3ccc(O)cc3)NC(=O)[C@H](CC(C)C)NC(=O)[C@H](CO)NC2=O)NC1=O)C(C)C` [IOC-13], the IC50 is 107 nM.

Turning to `CC[C@H](C)[C@H](NC(=O)CN)C(=O)N[C@H](C(=O)N[C@@H](CCC(=O)O)C(=O)N[C@@H](CCC(N)=O)C(=O)N[C@H]1CSSC[C@@H]2NC(=O)[C@H]([C@@H](C)CC)NC(=O)[C@H](CO)NC(=O)[C@H]([C@@H](C)O)NC(=O)[C@H](CSSC[C@H](NC(=O)[C@H](CC(C)C)NC(=O)[C@H](Cc3c[nH]cn3)NC(=O)[C@H](CCC(N)=O)NC(=O)[C@H](CC(N)=O)NC(=O)[C@@H](NC(=O)[C@@H](N)Cc3ccccc3)C(C)C)C(=O)NCC(=O)N[C@@H](CO)C(=O)N[C@@H](Cc3c[nH]cn3)C(=O)N[C@@H](CC(C)C)C(=O)N[C@@H](C(C)C)C(=O)N[C@@H](CCC(=O)O)C(=O)N[C@@H](C)C(=O)N[C@@H](CC(C)C)C(=O)N[C@@H](Cc3ccc(O)cc3)C(=O)N[C@@H](CC(C)C)C(=O)N[C@@H](C(C)C)C(=O)N[C@H](C(=O)NCC(=O)N[C@@H](CCC(=O)O)C(=O)N[C@@H](CCCNC(=N)N)C(=O)NCC(=O)N[C@@H](Cc3ccccc3)C(=O)N[C@@H](Cc3ccccc3)C(=O)N[C@@H](Cc3ccc(O)cc3)C(=O)N[C@H](C(=O)N3CCC[C@H]3C(=O)N[C@@H](CCCCNC(=O)CCCCC(=O)N(CC(=O)NCCO[C@@H]3O[C@@H](C)[C@@H](O)[C@@H](O)[C@@H]3O)CC(=O)NCCO[C@@H]3O[C@@H](C)[C@@H](O)[C@@H](O)[C@@H]3O)C(=O)N[C@H](C(=O)O)[C@@H](C)O)[C@@H](C)O)CSSC[C@@H](C(=O)N[C@@H](CC(N)=O)C(=O)O)NC(=O)[C@H](Cc3ccc(O)cc3)NC(=O)[C@H](CC(N)=O)NC(=O)[C@H](CCC(=O)O)NC(=O)[C@H](CC(C)C)NC(=O)[C@H](CCC(N)=O)NC(=O)[C@H](Cc3ccc(O)cc3)NC(=O)[C@H](CC(C)C)NC(=O)[C@H](CO)NC2=O)NC1=O)C(C)C` [IOC-12], the IC50 turned out to be 92.5 nM.
